Data from patent publication US20230339977A1, “SUBSTITUTED HETEROARYL COMPOUND, AND COMPOSITION AND APPLICATION THEREOF” (SUNSHINE LAKE PHARMA CO., LTD., priority 2020, published 2023).

Columns and labels:
[1] = Stability in rat liver microsomes; format: in vitro ADME
Procedure: (§1) The stability of the compounds of the present invention in human and rat liver microsomes can be tested by the following two methods:
(§2) Human or rat liver microsomes were incubated in polypropylene tubes in duplicate wells. A typical incubation mixture included human or rat liver microsomes (0.5 mg protein/mL), target compound (5 µM), and a total volume of 200 µL of NADPH (1.0 mM) potassium phosphate buffer (PBS, 100 mM, pH 7.4), the compound was dissolved in DMSO and diluted with PBS, the final concentration of the DMSO solution was 0.05%. Human or rat liver microsomes were incubated at 37° C. in an air-connected water bath. After pre-incubation for 3 minutes, […] was added to start the reaction. The same volume of ice-cold acetonitrile was added to terminate the reaction at different time points (0, 5, 10, 15, 30 and 60 min). Samples were stored at -80° C. until LC/MS/MS analysis.
(§3) The linear concentration range of each target compound was determined, and then, the concentration of the target compounds in the human or rat liver microsomes incubation mixture was determined by LC/MS/MS method.
(§4) Parallel incubations were performed using denatured microsomes as a negative control and dextromethorphan (70 µM) as a positive control. Negative control was incubated at 37° C., the reaction was terminated at different time points (0, 15 and 60 minutes); positive control was incubated at 37° C., the reaction was terminated at different time points (0, 5, 10, 15, 30 and 60 minutes). Positive and negative control samples were used in each assay to ensure the integrity of the microsomal incubation system.
(§5) In addition, the stability data of the compounds of the present invention in human or rat liver microsomes can also be obtained from the following tests:
(§6) Human or rat liver microsomes were incubated in polypropylene tubes in duplicate wells. A typical incubation mixture included human or rat liver microsomes (final concentration: 0.5 mg protein/mL), target compound (final concentration: 1.5 µM) and a total volume of 30 µL of K-buffer solution (containing 1.0 mM EDTA, 100 mM, pH 7.4). Compounds were dissolved in DMSO and diluted with K-buffer solution, the final concentration of DMSO was 0.2%. […]
(§7) For each reaction, in vivo intrinsic hepatic clearance CLint is extrapolated by plotting the compound concentration (expressed as a percentage) in human or rat liver microsomal incubations as a percentage relative to time zero (ref.: Naritomi Y, Terashita S, Kimura S, Suzuki A, Kagayama A, Sugiyama Y. Prediction of human hepatic clearance from in vivo animal experiments and in vitro metabolic studies with liver microsomes from animals and humans. Drug Metabolism and Disposition 2001, 29: 1316-1324.).

[2] = test system: TF-1 cells; assay: Inhibitory effect on TF-1 cell proliferation; format: cell-based; settings: Homo sapiens, alamar blue, read-out: IC50 (nM) TF-1 (h)
Procedure: TF-1 cells were seeded in a 96-well culture plate at a density of 20,000/well with 80 µL per well, the blank well was an equal amount of complete medium, and 10 µL of the compound dilution solution was added to the 96-well plate B1-11, C1-11, E1-11, F1-11, positive and negative wells were added with 5% DMSO medium equal to the volume of the compound, and the final concentration of DMSO was 0.5%. After 30 min, GM-CSF with a final concentration of 2 ng/mL was added to rows B, C, and D (positive wells), and the remaining wells (rows E, F, and G) were added with the same volume of medium as cytokines (negative wells). After incubation for 44 h at 37° C. in 5% CO2, alamar blue was added, the plate was incubated for 4 h, the fluorescence intensity of each well under the conditions of […], 580 nm wavelength was measured, and the IC50 value was calculated.
CTLL-2, P-STAT3 and TF-1 cells were seeded in a 96-well culture plate at a density of 20,000/well with 90 µL per well, and the blank well was an equal amount of complete medium. 10 ul of different compound dilutions were added to each plate row BC, DE, and FG, and 5% DMSO medium with equal volume of the compound was added to positive wells and negative wells, and the final concentration of DMSO was 0.5%. […]

[3] = Stability in human liver microsomes; format: in vitro ADME
Procedure: as §1, §2, §3, §4, §5, §6, §7

[4] = pH 7.4, in vivo intrinsic hepatic clearance extrapolated

CLint scaled [1, 4]: 15.4 mL/min/kg
half-life ([1]; rat, pH 7.4, read-out: Rat T½): 2.69 h
half-life ([3]; human, pH 7.4, read-out: Human T½): 0.804 h
CLint scaled [3, 4]: 36 mL/min/kg
SMILES: CC(=O)Nc1cc2c(-c3ccc4c(n3)C3(CCOC3)OC4)cn(C)c2cn1 (centres unmarked) [Example 2, N-(3-(4,5-Dihydro-2H,5′H-Spiro[Furan-3,7′-Furo[3,4-b]Pyridin]-2′-yl)-1-Methyl-1H-Pyrrolo[2,3-c]Pyridin-5-yl)Acetamide]
IC50 [2]: 7560 nM
